According to patent US8759334B2, “Compounds useful for the treatment of metabolic and inflammatory diseases” (Galapagos NV, priority 2011, dated 2014):

Columns and labels:
GPR43 [1] = biological target: T1, GPR43 (Homo sapiens, UniProt O15552); assay: Calcium mobilization assay without probenecid; format: cell-based; details: GPR43 stably expressing cells, triggered with sodium acetate at EC80, read-out: GPR43 assay without probenicid IC50
T1 construct: expressed in transfected cells
T1 sequence (O15552 1-330): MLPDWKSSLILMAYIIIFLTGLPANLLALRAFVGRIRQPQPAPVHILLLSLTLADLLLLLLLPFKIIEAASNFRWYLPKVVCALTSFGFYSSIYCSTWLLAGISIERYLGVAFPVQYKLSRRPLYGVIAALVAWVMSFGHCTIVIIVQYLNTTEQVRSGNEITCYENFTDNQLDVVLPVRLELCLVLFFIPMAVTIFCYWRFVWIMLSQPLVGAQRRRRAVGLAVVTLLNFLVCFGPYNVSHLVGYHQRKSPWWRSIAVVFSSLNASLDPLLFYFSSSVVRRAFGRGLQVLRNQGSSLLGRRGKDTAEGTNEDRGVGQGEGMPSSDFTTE
Outline: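 In GPR43-expressing cells loaded with a Calcium 4 dye, antagonism was tested by a 15 min compound preincubation at 37 °C, then a sodium acetate challenge at EC80, with Ca-flux read on injection. For agonism, Ca-flux was recorded directly on compound injection.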

GPR43 [2] = biological target: T1, GPR43; assay: Calcium mobilization assay with probenecid; format: cell-based; details: GPR43 stably expressing cells; triggered with sodium acetate at EC80; 2.5 mM probenecid; read-out: GPR43 assay with probenicid IC50
Outline: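 Cells stably expressing GPR43 plated overnight at 37 °C, then loaded 2 h with Calcium 4 dye plus 2.5 mM probenecid. […]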

SMILES | IC50 (GPR43 [1]) | IC50 (GPR43 [2])
CN(Cc1ccc(C(F)(F)F)cc1)C(=O)C1(C)CCN1C(=O)Cc1ccc(Cl)cc1Cl (stereo not drawn) [Compound 45, 1-[2-(2,4-Dichloro-phenyl)-acetyl]-2-methyl-azetidine-2-carboxylic acid methyl-(4-trifluoromethyl-benzyl)-amide] | > 1 µM | > 1 µM
Cc1cc(C)cc(CC(=O)N2CCC2(C)C(=O)N(CCC(N)=O)Cc2ccc(Cl)cc2)c1 (stereo not drawn) [Compound 71, 1-[2-(3,5-Dimethyl-phenyl)-acetyl]-2-methyl-azetidine-2-carboxylic acid (2-carbamoyl-ethyl)-(4-chloro-benzyl)-amide] | > 1 µM | 0.501 to 1 µM
CC1(C(=O)NCc2ccc(C(F)(F)F)cc2)CCN1C(=O)Cc1ccc(Cl)cc1Cl (stereo not drawn) [Compound 44, 1-[2-(2,4-Dichloro-phenyl)-acetyl]-2-methyl-azetidine-2-carboxylic acid 4-trifluoromethyl-benzylamide] | > 1 µM | > 1 µM
CN(Cc1ccc(Cl)cc1)C(=O)C1(C)CCN1C(=O)Cc1cccc(-c2ccccc2)c1 (stereo not drawn) [Compound 27, 1-(2-Biphenyl-3-yl-acetyl)-2-methyl-azetidine-2-carboxylic acid (4-chloro-benzyl)-methyl-amide] | > 1 µM | > 1 µM
CC1(C(=O)NCc2ccc(Cl)cc2)CCN1C(=O)Oc1ccc(Cl)cc1 (stereo not drawn) [Compound 2, 2-(4-Chloro-benzylcarbamoyl)-2-methyl-azetidine-1-carboxylic acid 4-chloro-phenyl ester] | > 1 µM | > 1 µM
CN(Cc1ccc(Cl)cc1)C(=O)C1(C)CCN1C(=O)Cc1cccc(-c2cccc(Cl)c2)c1 (stereo not drawn) [Compound 29, 1-[2-(3′-Chloro-biphenyl-3-yl)-acetyl]-2-methyl-azetidine-2-carboxylic acid (4-chloro-benzyl)-methyl-amide] | > 1 µM | > 1 µM

Other lines, results leading:

IC50 (GPR43 [1]) | IC50 (GPR43 [2]) | SMILES
0.101 to 0.5 µM | 0.101 to 0.5 µM | CC(=O)NCCN(Cc1ccc(Cl)cc1)C(=O)C1(C)CCN1C(=O)Cc1cc(C)cc(C)c1 (stereo not drawn) [Compound 101, 1-[2-(3,5-Dimethyl-phenyl)-acetyl]-2-methyl-azetidine-2-carboxylic acid (2-acetylamino-ethyl)-(4-chloro-benzyl)-amide]
> 1 µM | > 1 µM | Cc1cc(C)cc(CC(=O)N2CCC2(C)C(=O)N(Cc2ccc(Cl)cc2)[C@H](C)C(=O)O)c1 (stereo partly drawn) [Compound 74, (R)-2-((4-Chloro-benzyl)-{1-[2-(3,5-dimethyl-phenyl)-acetyl]-2-methyl-azetidine-2-carbonyl}-amino)-propionic acid]
> 1 µM | > 1 µM | COCCN(Cc1ccc(Cl)cc1)C(=O)C1(C)CCN1C(=O)Cc1cc(C)cc(C)c1 (stereo not drawn) [Compound 56, 1-[2-(3,5-Dimethyl-phenyl)-acetyl]-2-methyl-azetidine-2-carboxylic acid (4-chloro-benzyl)-(2-methoxy-ethyl)-amide]
> 1 µM | 0.501 to 1 µM | Cc1cccc(CN(CC(=O)O)C(=O)C2(C)CCN2C(=O)Cc2csc3ccccc23)c1 (stereo not drawn) [Compound 69, [[1-(2-Benzo[b]thiophen-3-yl-acetyl)-2-methyl-azetidine-2-carbonyl]-(3-methyl-benzyl)-amino]-acetic acid]
0.501 to 1 µM | 0.101 to 0.5 µM | Cc1cc(C)cc(CC(=O)N2CCC2(C)C(=O)N(Cc2ccc(Cl)cc2)CC(C)O)c1 (stereo not drawn) [Compound 72, 1-[2-(3,5-Dimethyl-phenyl)-acetyl]-2-methyl-azetidine-2-carboxylic acid (4-chloro-benzyl)-(2-hydroxy-propyl)-amide]
0.101 to 0.5 µM | 0.501 to 1 µM | Cc1cc(C)cc(CC(=O)N2CCC2(C)C(=O)N(CCCC#N)Cc2ccc(Cl)cc2)c1 (stereo not drawn) [Compound 97, 1-[2-(3,5-Dimethyl-phenyl)-acetyl]-2-methyl-azetidine-2-carboxylic acid (4-chloro-benzyl)-(3-cyano-propyl)-amide]
